Measurements taken from US20130209986A1, “METHOD FOR ENHANCING BUTYRATE PRODUCTION BY CLOSTRIDIUM TYROBUTYRICUM” (KOREA INSTITUTE OF SCIENCE AND TECHNOLOGY, priority 2012, published 2013).

What was measured:
[1] = system: Clostridium tyrobutyricum strains; assay: Fermentation of Clostridium tyrobutyricum with an electron transfer mediator added to the P2 culture medium (Experimental Example 1); type: cell-based; details: for Enhancement of butyrate production by simply adding the mediator to the medium: simple addition, no reduction electrode
Protocol: The P2 culture medium (Qureshi and Blaschek 1999) of pH 6.4±0.1 containing sucrose of 20 g/L instead glucose was sterilized. The Methyl Viologen (MV) (E°′=−446 mV) (Aldrich, South Korea) was added to the sterilized P2 culture medium with the concentrations of 0.1 mM (embodiment 1-1), 0.4 mM (embodiment 1-2), 0.5 mM (embodiment 1-3), 1.0 mM (embodiment 1-4), 2.0 mM (embodiment 1-5), 5.0 mM (embodiment 1-6) and 10.0 mM (embodiment 1-7). The separated Clostridium tyrobutyricum strains were inoculated on the MV-added P2 culture medium and were cultured at 37° C. and 150 rpm.
The strains were cultured under the same conditions as the conditions of the embodiments 1-1 to 1-7 except for the strains which didn't have an added MV.
The strains were cultured under the same conditions as the conditions of the embodiments 1-1 to 1-7 except for the strains on which 0.1 mM and 0.5 mM of the Neutral Red (NR) (E°′=−325 mV) (Aldrich, South Korea) were added instead of the MV.
The strains were cultured under the same conditions as the conditions of the embodiments 1-1 to 1-7 except for the strains on which 0.5 mM of anthraquinone-1,5-disulfonic acid, AQDS) (E°′=−184 mV) (Aldrich, South Korea) was added instead of the MV.
The butyrate and acetate produced through the embodiments 1-1 to 1-7, the comparison example 1, the comparison examples 2-1 to 2-7 and the comparison examples 3-1 to 3-7 were analyzed by HP-INNOWax column (30 m×250 μm×0.25 μm, Agilent Technologies and the gas chromatography (GC, Agilent technology 6890N Network GC System) with the frame-ionized detector. The hydrogen and carbon dioxide were quantified by multiplying the gas composition with the increased gas volume. The gas composition percentage was analyzed by the GC having a heat conductivity detector. The consumed sucrose concentration was quantified by a high performance liquid chromatography (HPLC) (Hi-plex H, Agilent, Santa Clara, Calif.) with 5 mM of sulfuric acid as a mobile phase at the flow rate of 0.5 mLmin^−1. The growth of microorganisms was checked at 600 nm of absorbance by using Shimadzu UVmini-1240 spectrophotometer or was checked with the Chemical Oxygen Demand (COD, mg/L unit) induced by the base soluble COD from the total COD by using COD vials (C-mac, South Korea, concentration range of 10-1,500 mg/L). The obtained values were average values obtained as the experiments were repeatedly performed three times or four times under a corresponding condition.

[2] = system: Clostridium tyrobutyricum; assay: Fermentation of Clostridium tyrobutyricum in a bioelectrical reactor (BER) with reduction electrode and electron transfer mediator (Experimental Example 2); type: cell-based
Protocol: A Bioelectrical Reactor (BER) formed of Pyrex was manufactured, which was specially designed for the sake of the anaerobic bacteria culture by changing a little the H-type reactor with a dual chamber (450 mL each). The reduction electrode (cathode) was a graphite felt electrode (4.5 cm×12 cm), and the oxidation electrode (anode) was a Pt plate electrode (2.5 cm×5 cm). The reference electrode was Ag/AgCl, 3 M KCl (BASi, West Lafayette, Ind.) and was dipped at a portion of the reduction electrode. The portions of the oxidation electrode and the reduction electrode were separated by Nafion 117 positive ion-exchange membrane (Naracell-tech, South Korea). The biological gas was collected by a Tedlar bag connected with a stainless steel fitting inserted in a reduction electrode stopper. The temperature of the reactor was maintained at 37±1° C. by a heating tape (Daihan, South Korea). The temperature sensor was inserted into a partition of the oxidation electrode by way of the stainless steel stand rod.
The portion of the reduction electrode of the reactor has features in that the neutral red was filled with the P2 medium added with 0.1 mM, and the portion of the oxidation electrode was filled with hexacyanoferrate [K4(Fe(CN)6)·3H2O]. The BER operated under a constant reduction electrode potential of −400 mV (vs. Ag/AgCl). The above mentioned potential was set by the potentiostat/galvanostat (EG&G Princeton Applied Research, Model 273A, Princeton, N.J.) which could be controlled by a computer. So, the current between the oxidation electrode and the reduction electrode was monitored. The reduction voltage applied to the reduction electrode was determined from the redox peak in the cyclic voltammogram of the culture liquid to which the neutral red was added at the scan speed of 20 mV/s based on the reduction electrode versus Ag/AgCl. The reduction of the neutral red by the reduction electrode appeared as the color of the solution turned from the red (NRox) to the yellow (NRred) when it was balanced to the negative potential within 5-30 minutes. For the sake of pH-adjusted BER operation, pH was maintained at 6 by temporarily adding 3M NaOH.
The embodiment 3 was performed in the same manner as the embodiment 2 except for the adjustment of pH.
The embodiment 4 was performed in the same manner as the embodiment 2 except that the portion of the reduction electrode of the reactor was filed with the P2 medium added with the MV of 0.5 mM of concentration was operated under a constant reduction electrode potential of −750 mV (vs. Ag/AgCl). In case of the MV, the reduction had features in that the color of the solution turned from a colorlessness (MVox) to a purple color (MVred).

[3] = methyl viologen 0.1 mM (embodiment 1-1)
[4] = methyl viologen 0.4 mM (embodiment 1-2)
[5] = methyl viologen 0.5 mM (embodiment 1-3)
[6] = methyl viologen 1 mM (embodiment 1-4)
[7] = methyl viologen 2 mM (embodiment 1-5)
[8] = methyl viologen 5 mM (embodiment 1-6)
[9] = methyl viologen 10 mM (embodiment 1-7)
[10] = Embodiment 4: methyl viologen 0.5 mM, −750 mV
[11] = Embodiment 2: BER with neutral red 0.1 mM, −400 mV, pH 6 controlled
[12] = Embodiment 3: BER with neutral red 0.1 mM, −400 mV, no pH control

## O=C1c2cccc(S(=O)(=O)O)c2C(=O)c2cccc(S(=O)(=O)O)c21 [AQDS, anthraquinone-1,5-disulfonic acid]
[1]
  Enhancement of butyrate production by simply adding the mediator to the medium: impossible to enhance the production of butyrate

## C[n+]1ccc(-c2cc[n+](C)cc2)cc1 [Methyl viologen, Methyl Viologen]
[1]; 0.5 mM, simple addition without reduction electrode
  Final concentration of butyrate as compared to the comparison group: about 1.5 times
[1]; mediators added at 0.5 mM
  Production of butyrate among MV, NR and AQDS (FIG. 2): highest
[1]; [3]
  Bio-gas % vs. control: 82%
  Bio-gas vol: 110 mL
  Butyrate % vs. control: 115%
  Butyrate final conc.: 6.5 g/L
[1]; methyl viologen 0.1 mM (embodiment 1-1), P2 medium sucrose 20 g/L, 37° C.
  OD (600 nm): 6.2 (±0.4)
[1]; [4]
  Bio-gas % vs. control: 80%
  Bio-gas vol: 107 mL
  Butyrate % vs. control: 128%
  Butyrate final conc.: 7.3 g/L
  OD (600 nm): 6.3 (±0)^
[1]; [5]
  Bio-gas % vs. control: 65%
  Bio-gas vol: 87 mL
  Butyrate % vs. control: 150%
  Butyrate final conc.: 8.5 g/L
  OD (600 nm): 5.8 (±0.3)
[1]; [6]
  Bio-gas % vs. control: 50%
  Bio-gas vol: 67 mL
  Butyrate % vs. control: 109%
  Butyrate final conc.: 6.2 g/L
  OD (600 nm): 5.4 (±0.8)
[1]; [7]
  Bio-gas % vs. control: 34%
  Bio-gas vol: 46 mL
  Butyrate % vs. control: 112%
  Butyrate final conc.: 6.4 g/L
  OD (600 nm): 3.9 (±0.9)
[1]; [8]
  Bio-gas % vs. control: 3%
  Bio-gas vol: 4 mL
  Butyrate % vs. control: 14%
  Butyrate final conc.: 0.8 g/L
  OD (600 nm): 1.5 (±1.9)
[1]; [9]
  Bio-gas % vs. control: 3%
  Bio-gas vol: 4 mL
  Butyrate % vs. control: 12%
  Butyrate final conc.: 0.7 g/L
  OD (600 nm): 0.2 (±0.1)
[2]; [10]
  Acetate productivity (maximum productivity): 0.25 ± 0 g/L, h^−1
  Butyrate productivity (maximum productivity): 0.34 ± 0.01 g/L, h^−1
  Butyrate yield: 0.43 ± 0.02 g butyrate/g sucrose
  Final butyrate concentration: 7.1 ± 0.4 g/L
  Maximum O.D. (600 nm): 5.3 ± 0.4
  Specific growth rate: 0.10 ± 0.01 h⁻¹
  Sucrose uptake rate (maximum uptake rate): 0.85 ± 0.05 g/L, h^−1
[2]; MV, embodiment 4, −750 mV vs. Ag/AgCl
  Production of butyrate in the reduction electrode system: didn't help enhance the production of butyrate

## Cc1cc2nc3ccc(N(C)C)cc3nc2cc1N.Cl [neutral red, Neutral Red]
[1]
  Enhancement of butyrate production by simply adding the mediator to the medium: didn't make any effects
[1]; listed as NR
  Enhancement of butyrate production by simply adding the mediator to the medium: impossible to enhance the production of butyrate
[2]; [11]
  Acetate productivity (maximum productivity): 0 g/L, h^−1
  Butyrate productivity (maximum productivity): 0.28 ± 0.01 g/L, h^−1
  Butyrate yield: 0.44 ± 0.04 g butyrate/g sucrose
  Final butyrate concentration: 8.8 ± 0.9 g/L
  Maximum O.D. (600 nm): 5.1 ± 0.7
  Specific growth rate: 0.87 ± 0.64 h⁻¹
  Sucrose uptake rate (maximum uptake rate): 0.67 ± 0 g/L, h^−1
[2]; [12]
  Acetate productivity (maximum productivity): 0 g/L, h^−1
  Butyrate productivity (maximum productivity): 0.31 ± 0.07 g/L, h^−1
  Butyrate yield: 0.45 ± 0.02 g butyrate/g sucrose
  Final butyrate concentration: 6.7 ± 0.3 g/L
  Maximum O.D. (600 nm): 5.0 ± 0.4
  Specific growth rate: 0.11 ± 0.01 h⁻¹
  Sucrose uptake rate (maximum uptake rate): 0.64 ± 0.31 g/L, h^−1
[2]; embodiment 2, neutral red reduction electrode system, increased from 5 g/L
  Production of butyrate (FIG. 4): 8 g/L
[2]; embodiments 2 and 3, neutral red
  Acetic acid production in the reduction electrode system: did not produce acetic acid
[2]; neutral red, embodiments 2 and 3, −400 mV vs. Ag/AgCl
  Production of butyrate in the reduction electrode system: increase in the production of butyrate
